Where two headings read alike, the source gives them in different places.
Tests used:
[1] = Stability in simulated gastric fluid (SGF, pH 1.2); format: in vitro ADME; details: 100 μg/mL, SGF pH 1.2, 37 °C, 0–60 min
Description: (§1) The stability of quercetin and t-res was tested at 100 μg/mL in simulated gastric (SGF, pH 1.2) and intestinal (SIF, pH 6.8) fluids (n = 3). The manufacturer’s protocol was followed to prepare biorelevant media with enzymes. Quercetin and t-res were exposed to SGF and SIF buffers with and without enzymes and incubated in a shaking water bath at 37 °C. 100 μL samples were collected at specific intervals (0–60 min for SGF and 0–180 min for SIF). At a concentration of 100 µg/mL samples were extracted using ACN containing I.S (1:2, v/v), vortexed for 5 min, and then centrifuged at 10,000 rpm for 5 min [52]. The supernatant of the samples was utilized for LC-MS/MS analysis. The % remaining of quercetin and t-res was calculated to determine the stability using Equation (1). (1) % Drug remaining=Concentration of drug at time t/Concentration of drug at time 0×100

[2] = parameters: method as in Dinesh Kumar V et al. (2014) [48]; details: rat plasma, oral, 25 mg/kg, ref Dinesh Kumar V et al. (2014) [48], cited from earlier work
[3] = Stability in rat serum under storage conditions (autosampler, benchtop, long-term, freeze-thaw); format: in vitro ADME; details: for Autosampler stability, accuracy / Autosampler stability, measured conc. / Benchtop stability, accuracy / Benchtop stability, measured conc. / Freeze-thaw stability, accuracy / Freeze-thaw stability, measured conc. / Long-term stability, accuracy / Long-term stability, measured conc.: rat serum, n = 6; for Autosampler stability, accuracy / Autosampler stability, measured conc.: 4 ± 2 °C, 24 h; for Benchtop stability, accuracy / Benchtop stability, measured conc.: 24 ± 4 °C, 8 h; for Freeze-thaw stability, accuracy / Freeze-thaw stability, measured conc. / Long-term stability, accuracy / Long-term stability, measured conc.: −70 ± 10 °C; for Freeze-thaw stability, accuracy / Freeze-thaw stability, measured conc.: 3 cycles; for Long-term stability, accuracy / Long-term stability, measured conc.: 30 days
Description: Stability studies were performed using three different QC levels including LQC, MQC, and HQC with six replicates. The extracted serum samples were analyzed using different storage conditions including autosampler (4 ± 2 °C for 24 h), bench top stability (24 ± 4 °C for 8 h), and long-term stability (−70 ± 10 °C for 30 days). Freeze-thaw stability was evaluated after subjecting the samples to three cycles of freezing (−70 ± 10 °C for 12 h) and thawing. Stability samples were quantified against fresh calibration and QC samples. The accuracy and precision of stability samples should meet the acceptance criterion of ±15%.

[4] = Stability in simulated intestinal fluid (SIF, pH 6.8); format: in vitro ADME; details: 100 μg/mL, SIF pH 6.8, 37 °C, 0–180 min
Description: as §1

[5] = In-vivo pharmacokinetic study in rats after oral administration of EECQ extract; details: serum, oral 400 mg/Kg EECQ, mean ± SD, n = 6; for AUC(0-inf): male, SD, po; for AUC(0-inf) / AUC(0-t) / Cmax / Tmax / half-life: rat
Description: Liquid-liquid extraction was employed for processing samples of quercetin and t-res in rat serum. CS/QC samples were prepared using 10 μL of sample and 90 μL of control serum or 100 μL serum (in vivo) samples were treated with 100 μL of 1 mg/mL β-glucuronidase enzyme in 100 mM ammonium acetate buffer (pH 5) and incubated for 2 h at 37 °C. The reaction mixtures were precipitated with 200 μL of 0.1% FA in methanol-containing IS (FFA). Samples were vortexed for 5 min at 2000 rpm, and then ethyl acetate was added, the sample was vortexed and centrifuged at 10,000 rpm for 10 min. The organic layer was then collected and dried at 37 °C using a TurboVap and nitrogen stream. The dried residues were reconstituted with mobile phase and injected into LC-MS/MS for analysis.
The pharmacokinetic study of quercetin and t-res was performed by an oral administration of EECQ extract (400 mg/kg) in male SD rats (n = 6). The EECQ oral dose was selected based on our previous publication. […] Blood samples were collected from the retro-orbital plexus of rats at predetermined time points 0.25, 0.5, 1, 2, 4, 8, 12, 24, and 48 h after oral administration. Serum was obtained by centrifuging the blood and samples were stored at −80 °C until analysis. Serum samples were processed using the LLE extraction mentioned in Section 4.6 and analyzed using the validated LC-MS/MS method. The non-compartment model was used to calculate the pharmacokinetic (PK) parameters for quercetin and t-res using WinNonlin 6.3 software (Pharsight Corporation, Saint Louis, MO, USA). The PK parameters were estimated, including Cmax, maximum plasma concentration; t1/2, half-life; Tmax, time to reach Cmax; CL/F, clearance and Vd/F, apparent volume of distribution. AUC0–t (area under the concentration curve from zero time point to the last time point) was determined with the trapezoidal rule up to the last measured plasma concentration, Clast. AUC0–∞ (AUC curve from zero time point to infinity) was determined by adding AUC0–t and Clast/Ke.

[6] = Metabolic stability in rat liver microsomes (RLM); details: RLM 0.5 mg/mL, 100 µg/mL, 1 mM NADPH, up to 60 min
Description: (§2) The 0.8 mL reaction mixture was prepared using RLM at 0.5 mg/mL, 40 mM MgCl2, in 50 mM Tris-HCl buffer (pH 7.4). 100 µg/mL of quercetin and t-res was added to the reaction mixture and preincubated in a shaking water bath at 37 °C and 1 mM NADPH was added to the reaction milieu to initiate the reactions. Samples were collected at predetermined time points up to 60 min and processed for LC-MS/MS analysis [54].

Plasma stability = format: in vitro ADME; details: rat, 37 °C
Description: The preincubation of rat plasma was done for 5 min at 37 °C. After pre-incubation, quercetin and t-res were added to plasma at a concentration of 100 µg/mL, and reaction tubes were incubated for 3 h in a shaking water bath at 37 °C. Aliquots were collected at predetermined timepoints of 0, 5, 15, 30, 45, 60, 90, 120, and 180 min. Plasma samples were processed immediately using the extraction method mentioned in Section 4.6. The % remaining of the drug at various time intervals relative to the initial time point (time 0) was used to calculate the plasma stability.

[7] = rat, microsomes, 1 h
Description: as §2

[8] = parameters: method as in Meng-xiang Su et al. (2011) [47]; details: rat plasma, oral, 0.6 mg/kg; ref Meng-xiang Su et al. (2011) [47]; cited from earlier work
[9] = nominal conc. 203 ng/mL (204 for trans-resveratrol)

| SMILES | Autosampler stability, accuracy ([3]; nominal conc. 30 ng/mL) [%] | Autosampler stability, measured conc. ([3]; nominal conc. 30 ng/mL) [ng/mL] | Autosampler stability, accuracy [3, 9] [%] | Autosampler stability, measured conc. [3, 9] [ng/mL] | Autosampler stability, accuracy ([3]; nominal conc. 375 ng/mL) [%] | Autosampler stability, measured conc. ([3]; nominal conc. 375 ng/mL) [ng/mL] | Benchtop stability, accuracy ([3]; nominal conc. 30 ng/mL) [%] | Benchtop stability, measured conc. ([3]; nominal conc. 30 ng/mL) [ng/mL] | Benchtop stability, accuracy [3, 9] [%] | Benchtop stability, measured conc. [3, 9] [ng/mL] | Benchtop stability, accuracy ([3]; nominal conc. 375 ng/mL) [%] | Benchtop stability, measured conc. ([3]; nominal conc. 375 ng/mL) [ng/mL] | Freeze-thaw stability, accuracy ([3]; nominal conc. 30 ng/mL) [%] | Freeze-thaw stability, accuracy [3, 9] [%] | Freeze-thaw stability, measured conc. [3, 9] [ng/mL] | Freeze-thaw stability, accuracy ([3]; nominal conc. 375 ng/mL) [%] | Freeze-thaw stability, measured conc. ([3]; nominal conc. 375 ng/mL) [ng/mL] | Long-term stability, accuracy ([3]; nominal conc. 30 ng/mL) [%] | Long-term stability, measured conc. ([3]; nominal conc. 30 ng/mL) [ng/mL] | Long-term stability, accuracy [3, 9] [%] | also measured |
| --- | --- | --- | --- | --- | --- | --- | --- | --- | --- | --- | --- | --- | --- | --- | --- | --- | --- | --- | --- | --- | --- |
| O=c1c(O)c(-c2ccc(O)c(O)c2)oc2cc(O)cc(O)c12 [Quercetin] | 92.56 | 27.77 ± 1.50 | 89.32 | 181.31 ± 8.65 | 99.44 | 372.92 ± 2.21 | 90.29 | 27.09 ± 1.67 | 90.96 | 184.64 ± 7.16 | 98.96 | 371.12 ± 2.43 | 98.12 | 93.68 | 190.17 ± 8.97 | 98.63 | 369.86 ± 4.43 | 100.22 | 30.07 ± 2.06 | 98.38 | Stability in SGF [1]: Moderate instability; AUC(0–t) [2]: 3283.75 ng·h/mL; Tmax [2]: 4.00; plasma half-life [2]: 4.96 h; Cmax ([2]; in ng/mL): 369.20; Stability in rat serum at variable storage conditions ([3]; autosampler, benchtop, freeze-thaw, long-term): stable; Freeze-thaw stability, measured conc. ([3]; nominal conc. 30 ng/mL): 29.44 ± 2.73 ng/mL; Long-term stability, measured conc. [3, 9]: 199.71 ± 8.70 ng/mL; Long-term stability, accuracy ([3]; nominal conc. 375 ng/mL): 99.48%; Long-term stability, measured conc. ([3]; nominal conc. 375 ng/mL): 373.05 ± 10.65 ng/mL; Stability in SIF [4]: stable; AUC(0-inf) ([5]; 400 mg/kg): 471 ± 51.5 ng·h/mL; AUC0–∞ ([5]; male SD rats, 400 mg/kg): 474.23 ± 51.49 ng·h/mL; AUC(0-t) ([5]; male SD rats): 447 ± 47 ng·h/mL; Cmax ([5]; male SD rats): 57.6 ± 14.3 ng/mL; Tmax ([5]; male SD rats): 1.17 ± 0.41 h; half-life ([5]; male SD rats): 4.91 ± 0.69 h; % remaining in RLM [6]: 53.78; remaining at 3 h, 100 µg/mL (Plasma stability): 83.4% |
| Oc1ccc(/C=C/c2cc(O)cc(O)c2)cc1 [trans-Resveratrol, trans-resveratrol] | 94.53 | 28.36 ± 2.19 | 93.73 | 190.28 ± 13.20 | 99.51 | 373.15 ± 5.84 | 95.08 | 28.52 ± 3.05 | 93.36 | 189.53 ± 8.81 | 98.17 | 368.13 ± 12.29 | 91.32 | 93.32 | 189.43 ± 17.82 | 98.11 | 367.92 ± 11.94 | 101.68 | 30.50 ± 2.53 | 93.14 | Long-term stability, measured conc. [3, 9]: 189.08 ± 14.18 ng/mL; Long-term stability, accuracy ([3]; nominal conc. 375 ng/mL): 97.67%; Long-term stability, measured conc. ([3]; nominal conc. 375 ng/mL): 366.25 ± 11.38 ng/mL; Phase I metabolism in RLM [7]: no phase I metabolism was observed; Phase I metabolism in RLM ([7]; 100 µg/mL, pH 7.4): no phase-1 metabolism observed; AUC(0-inf) ([5]; 400 mg/kg): 157 ± 21.1 ng·h/mL; AUC(0-t) ([5]; male SD rats): 145 ± 20.8 ng·h/mL; Cmax ([5]; male SD rats): 56.4 ± 13.1 ng/mL; Tmax ([5]; male SD rats): 0.58 ± 0.2 h; half-life ([5]; male SD rats): 1.51 ± 0.4 h; AUC(0–t) [8]: 2835 ± 1655 ng·min/mL; Cmax [8]: 23 ± 8 ng/mL; half-life [8]: 0.6 ± 0.1 h; remaining at 3 h, 100 µg/mL (Plasma stability): 84.4% |

Reference: article PMC10301570 (Molecules, 2023)
